Source: publication PMC4995097, “Talin-KANK1 interaction controls the recruitment of cortical microtubule stabilizing complexes to focal adhesions” (eLife, 2016)

Columns and labels:
Assay type in all cases: cell-based, human
[1] = tested on: LL5β at the cell edge of HeLa cells; experiment: Peripheral clustering of LL5β; details: talin1/2-depleted HeLa rescue (Fig 4G); mean, n = 12, SEM 4.85049
Method: (§1) HeLa Kyoto cell line was described previously ([Lansbergen et al., 2006]; [Mimori-Kiyosue et al., 2005]). HEK293T cells were purchased from ATCC; culture and transfection of DNA and siRNA into these cell lines was performed as previously described ([van der Vaart et al., 2013]). HaCaT cells were purchased at Cell Line Service (Eppelheim, Germany) and cultured according to manufacturer’s instructions. The cell lines were routinely checked for mycoplasma contamination using LT07-518 Mycoalert assay (Lonza, Switzerland).The identity of the cell lines was monitored by immunofluorescence-staining-based analysis with multiple markers. Blebbistatin was purchased from Enzo Life Sciences and used at 50 μM. Serum starvation in HeLa cells was done for 48 hr and focal adhesion assembly was stimulated by incubation with fetal calf serum-containing medium with or without blebbistatin for 2 hr. ROCK1 inhibitor Y-27632 was purchased at Sigma-Aldrich and used at 1 or 10 μM. Double stable HeLa cell line expressing GFP-KANK1 and TagRFP-paxillin was made by viral infection. We used a pLVIN-TagRFP-paxillin-based lentivirus and a pQC-GFP-KANK1-based retrovirus packaged in HEK293T cells using respectively Lenti-X HTX packaging and pCL-Ampho vectors. Antibiotic selection was applied to cells 48 hr after infection using 500 μg/ml G418 (Geneticin, Life Technologies) and 1 μg/ml puromycin (InvivoGen).
(§2) Antibodies against HA and GFP tags, and liprin β1 used for Western blot analysis were previously described ([van der Vaart et al., 2013]). Rabbit antibodies against KANK1 (HPA005539) and KANK2 (HPA015643) were purchased at Sigma-Aldrich. Western blot analysis of KANK1 was performed using rabbit polyclonal KANK1 antibody (A301-882A) purchased at Bethyl Laboratories. Talin immunofluorescence staining was performed using mouse monoclonal 8d4 antibody (Sigma-Aldrich). Western blot analysis of talin 1 and 2 expression was performed using respectively the isotype specific mouse monoclonal 97H6 (Sigma-Aldrich) and 68E7 (Abcam) antibodies. Ku80 (7/Ku80) antibody was purchased from BD Biosciences. Immunofluorescence staining of KANK1, LL5β, liprin β1, KIF21A and CLASP2 in HeLa and HaCaT cells was performed using the antibodies and procedures previously described ([Lansbergen et al., 2006]; [van der Vaart et al., 2013]). F-actin was stained using Alexa Fluor 594-conjugated phalloidin (Life Technologies). Phospho-tyrosine mouse antibody (PT-66) was purchased from Sigma-Aldrich and rabbit FAK phospho-tyrosine 397 was purchased from Biosource.
Fixed samples and corresponding immunofluorescence images were acquired using widefield fluorescence illumination on a Nikon Eclipse 80i or Ni upright microscope equipped with a CoolSNAP HQ2 CCD camera (Photometrics) or a DS-Qi2 camera (Nikon) an Intensilight C-HGFI precentered fiber illuminator (Nikon), ET-DAPI, ET-EGFP and ET-mCherry filters (Chroma), Nikon NIS Br software, Plan Apo VC 100x NA 1.4 oil, Plan Apo Lambda 100X oil NA 1.45 and Plan Apo VC 60x NA 1.4 oil (Nikon) objectives. […]

[2] = tested on: KANK1 at the cell edge of HeLa cells; experiment: Peripheral clustering of KANK1
Method: as §1, §2
Fixed samples and corresponding immunofluorescence images were acquired using widefield fluorescence illumination on a Nikon Eclipse 80i or Ni upright microscope equipped with a CoolSNAP HQ2 CCD camera (Photometrics) or a DS-Qi2 camera (Nikon) an Intensilight C-HGFI precentered fiber illuminator (Nikon), ET-DAPI, ET-EGFP and ET-mCherry filters (Chroma), Nikon NIS Br software, Plan Apo VC 100x NA 1.4 oil, Plan Apo Lambda 100X oil NA 1.45 and Plan Apo VC 60x NA 1.4 oil (Nikon) objectives. TIRFM-based live cell imaging was performed using the setup described before ([van der Vaart et al., 2013]) or a similar Nikon Ti microscope-based Ilas^2 system (Roper Scientific, Evry, FRANCE) equipped with dual laser illuminator for azimuthal spinning TIRF (or Hilo) illumination, 150 mW 488 nm laser and 100 mW 561 nm laser, 49,002 and 49,008 Chroma filter sets, EMCCD Evolve mono FW DELTA 512x512 camera (Roper Scientific) with the intermediate lens 2.5X (Nikon C mount adapter 2.5X), CCD camera CoolSNAP MYO M-USB-14-AC (Roper Scientific) and controlled with MetaMorph 7.8.8 software (Molecular Devices). Simultaneous imaging of […] was performed as described before ([van der Vaart et al., 2013]) or using the Optosplit III image splitter device (Andor) on the Ilas^2 system.
For presentation, images were adjusted for brightness and processed by Gaussian blur and Unsharp mask filter using ImageJ 1.47v (NIH). […]

[3] = tested on: focal adhesions in HeLa cells; experiment: FA area; set-up: AV areaFA: unit not given here; details: HeLa, TLN1-KD, mTLN1 rescue; mean of per-cell averages, Count 12
Method: HeLa Kyoto cell line was described previously ([Lansbergen et al., 2006]; [Mimori-Kiyosue et al., 2005]). HEK293T cells were purchased from ATCC; culture and transfection of DNA and siRNA into these cell lines was performed as previously described ([van der Vaart et al., 2013]). HaCaT cells were purchased at Cell Line Service (Eppelheim, Germany) and cultured according to manufacturer’s instructions. The cell lines were routinely checked for mycoplasma contamination using LT07-518 Mycoalert assay (Lonza, Switzerland).The identity of the cell lines was monitored by immunofluorescence-staining-based analysis with multiple markers. Blebbistatin was purchased from Enzo Life Sciences and used at 50 μM. […]
For presentation, images were adjusted for brightness and processed by Gaussian blur and Unsharp mask filter using ImageJ 1.47v (NIH). Fluorescence profiles are values measured by line scan analysis in ImageJ, normalized by background average fluorescence, expressed as a factor of the baseline value obtained for individual channel and plotted as a function of maximum length factor of the selection line (distance ratio). Protein clustering at the cell edge is the ratio of the total fluorescence in the first 5 μm from the cell edge to the next 5 μm measured by line scan analysis in ImageJ after thresholding for cell outline marking and out-of-cell region value assigned to zero. […]

“GFP-talin1-G1404L: GFP-tagged mouse talin1 with single point mutation G1404L” was tested, and the “Peripheral clustering of LL5β, percentage of control, AV, talin rescue” value [1] was 20.7686 percentage of control condition average value, the “Peripheral clustering of KANK1, edge ratio, AV” value ([2]; talin1/2-depleted HeLa rescued with GFP-talin1 (Fig 3F), mean, n = 12) was 0.9974 and the “KANK1 distribution, talin rescue (in words)” value ([2]; talin1/2-depleted HeLa, Figure 3E,F) was “dispersed over the plasma membrane”. For the same substance, the “AV areaFA” value [3] was 1.146.
